Measured values from BigSolDB 2.1.

N[C@@H](CC(=O)N1CCn2c(nnc2C(F)(F)F)C1)Cc1cc(F)c(F)cc1F
Details	solubility (mole fraction)
in THF, 278.15 K	0.0212
in THF, 283.15 K	0.0274
in THF, 288.15 K	0.0322
in THF, 293.15 K	0.0363
in THF, 298.15 K	0.0463
in THF, 303.15 K	0.0554
in THF, 308.15 K	0.0625
in THF, 313.15 K	0.0756
in THF, 318.15 K	0.0933
in THF, 323.25 K	0.114
in acetonitrile, 278.15 K	0.0265
in acetonitrile, 283.15 K	0.0354
in acetonitrile, 288.15 K	0.0432
in acetonitrile, 293.15 K	0.0536
in acetonitrile, 298.15 K	0.0576
in acetonitrile, 303.15 K	0.0681
in acetonitrile, 308.15 K	0.0888
in acetonitrile, 313.15 K	0.105
in acetonitrile, 318.15 K	0.128
in acetonitrile, 323.15 K	0.156
in ethanol, 273.15 K	0.00768
in ethanol, 278.15 K	0.0108
in ethanol, 283.15 K	0.0138
in ethanol, 288.15 K	0.0179
in ethanol, 293.15 K	0.0233
in ethanol, 298.15 K	0.0298
in ethanol, 303.15 K	0.0363
in ethanol, 308.15 K	0.0451
in ethanol, 313.15 K	0.0606
in ethanol, 318.15 K	0.078
in ethyl acetate, 278.15 K	0.00986
in ethyl acetate, 283.15 K	0.0117
in ethyl acetate, 288.15 K	0.014
in ethyl acetate, 293.15 K	0.0167
in ethyl acetate, 298.15 K	0.02
in ethyl acetate, 303.15 K	0.0242
in ethyl acetate, 308.15 K	0.0286
in ethyl acetate, 313.15 K	0.0353
in ethyl acetate, 318.15 K	0.0435
in ethyl acetate, 323.15 K	0.0565
in isobutanol, 278.15 K	0.0101
in isobutanol, 283.15 K	0.0123
in isobutanol, 288.15 K	0.014
in isobutanol, 293.15 K	0.0158
in isobutanol, 298.15 K	0.0191
in isobutanol, 303.15 K	0.0216
in isobutanol, 308.15 K	0.0255
in isobutanol, 313.15 K	0.0301
in isobutanol, 318.15 K	0.0334
in isobutanol, 323.15 K	0.0379
in isopentanol, 278.15 K	0.00453
in isopentanol, 283.15 K	0.0054
in isopentanol, 288.15 K	0.00647
in isopentanol, 293.15 K	0.00801
in isopentanol, 298.15 K	0.0104
in isopentanol, 303.15 K	0.0123
in isopentanol, 308.15 K	0.0154
in isopentanol, 313.15 K	0.0184
in isopentanol, 318.15 K	0.0232
in isopentanol, 323.15 K	0.0316
in isopropanol, 273.15 K	0.00439
in isopropanol, 278.15 K	0.00482
in isopropanol, 283.15 K	0.00579
in isopropanol, 288.15 K	0.00703
in isopropanol, 293.15 K	0.00857
in isopropanol, 298.15 K	0.0103
in isopropanol, 303.15 K	0.0122
in isopropanol, 308.15 K	0.0139
in isopropanol, 313.15 K	0.0162
in isopropanol, 318.15 K	0.0188
in methyl acetate, 278.15 K	0.0397
in methyl acetate, 283.15 K	0.05
in methyl acetate, 288.15 K	0.0545
in methyl acetate, 293.15 K	0.063
in methyl acetate, 298.15 K	0.0728
in methyl acetate, 303.15 K	0.0835
in methyl acetate, 308.15 K	0.0954
in methyl acetate, 313.15 K	0.111
in methyl acetate, 318.15 K	0.126
in methyl acetate, 323.15 K	0.139
in n-butanol, 278.15 K	0.0105
in n-butanol, 283.15 K	0.0129
in n-butanol, 288.15 K	0.0141
in n-butanol, 293.15 K	0.0177
in n-butanol, 298.15 K	0.0208
in n-butanol, 303.15 K	0.0243
in n-butanol, 308.15 K	0.0262
in n-butanol, 313.15 K	0.0328
in n-butanol, 318.15 K	0.0382
in n-butanol, 323.15 K	0.0452
in n-propanol, 278.15 K	0.00795
in n-propanol, 283.15 K	0.011
in n-propanol, 288.15 K	0.0123
in n-propanol, 293.15 K	0.0183
in n-propanol, 298.15 K	0.022
in n-propanol, 303.15 K	0.0278
in n-propanol, 308.15 K	0.0387
in n-propanol, 313.1 K	0.0433
in n-propanol, 318.15 K	0.0572
in n-propanol, 323.15 K	0.0804
in sec-butanol, 278.15 K	0.00274
in sec-butanol, 283.15 K	0.00346
in sec-butanol, 288.15 K	0.0047
in sec-butanol, 293.15 K	0.00513
in sec-butanol, 298.15 K	0.00739
in sec-butanol, 303.15 K	0.00958
in sec-butanol, 308.15 K	0.0115
in sec-butanol, 313.15 K	0.0142
in sec-butanol, 318.15 K	0.0194
in sec-butanol, 323.15 K	0.0224
in water, 278.15 K	0.000281
in water, 283.15 K	0.000319
in water, 288.15 K	0.000349
in water, 293.15 K	0.000376
in water, 298.15 K	0.00042
in water, 303.15 K	0.000458
in water, 308.15 K	0.000499
in water, 313.15 K	0.000542
in water, 318.15 K	0.000574
in water, 323.15 K	0.000633
